Key:
PPE lesions = experiment: Rat model of Doxil-induced palmar-plantar erythrodysesthesia (PPE); assay type: in vivo, Sprague-Dawley rats
Protocol: PPE score is the product of Severity Score and percentage of body area affected. Overall PPE score is the sum of scores for each body area.
24 male Sprague-Dawley rats weighing between 250 to 300 grams(g) were intravenously (IV) treated with Doxil® weekly for 5 cycles of administration. The dosage administered was 2.5 mg/kg IV. […] The rats were observed weekly for lesions and scoring (FIG. 1). Scores for severity and percentage affected body area were analyzed and reported on final observation.
Sprague-Dawley rats were treated with amifostine at a dosage of 100 or 200 milligram/kilogram (mg/kg) IV, weekly, approximately 15 minutes before each Doxil® injection or treated with amifostine, 100 mg/kg IV, twice weekly at 15 min before and 3 days after Doxil injection (FIG. 2).

C26 colon tumors = experiment: Survival of mice with IP C26 colon tumors; assay type: in vivo, BalbC mice; details: amifostine 200 mg/kg for five administrations
Protocol: Euthanasia was provided for animals with weight loss greater than 20% or with clinical signs of distress. Survival of female BalbC mice with IP C26 colon tumors treated once with Doxil® (8 mg/kg) (tumor inoculation: 10^6 cells IP). Animals were administered 200 mg/kg of amifostine subcutaneously (SC) prior to Doxil® administration and 1, 2, 4 and 6 days after Doxil® administration (FIG. 4).

Lewis lung tumors = experiment: Growth of SC Lewis lung tumors
Protocol: Doxil® was administered 4 mg/kg IV, weekly for 3 cycles. Amifostine, 100 or 200 mg/kg IV, was administered before and 1, 2, and 3 days after each Doxil® treatment cycle.

[1] = test system: canine non-Hodgkin's lymphoma; details: cited from earlier work
[2] = test system: murine and human xenograft tumor models; details: in vivo; cited from earlier work

SMILES	overall PPE severity score (PPE lesions; amifostine 100 mg/kg IV twice weekly, 15 min before and 3 days after Doxil 2.5 mg/kg, p<0.02)	overall PPE severity score (PPE lesions; amifostine 100 mg/kg IV weekly, 15 min before each Doxil 2.5 mg/kg, not significant)	overall PPE severity score (PPE lesions; amifostine 200 mg/kg IV weekly before each Doxil 2.5 mg/kg, p<0.01)	incidence of PPE (PPE lesions; amifostine treatment with liposomal doxorubicin 2.5 mg/kg weekly)	toxicity (weight loss, lethargy) (C26 colon tumors)	rate of tumor growth (Lewis lung tumors; Doxil 4 mg/kg IV weekly for 3 cycles, amifostine 100 or 200 mg/kg IV before and 1, 2, 3 days after each Doxil)	toxicity to the animals (Lewis lung tumors; amifostine 200 mg/kg days 0-3 of each Doxil treatment cycle)	likelihood of severe PPE and discontinuation, placebo-treated versus pyridoxine-treated dogs (relative risk) ([1]; liposomal doxorubicin 1 mg/kg q 3 weeks x5, pyridoxine 50 mg tid oral 15 weeks, p=0.032) [fold]	remission rates between groups ([1]; pyridoxine versus placebo)	duration of remission ([1]; pyridoxine-treated dogs, placebo 48 days, p=0.084) [days]	survival ([1]; pyridoxine-treated dogs, placebo 130 days, p=0.182) [days]	effect of pyridoxine co-treatment on therapeutic effect of liposomal doxorubicin [2]
NCCCNCCSP(=O)(O)O [amifostine]	4.33	7.94	3.18	reduced	Significant toxicity	did not affect rate of tumor growth	not significantly toxic					
Cc1ncc(CO)c(CO)c1O [pyridoxine]								4.2	No difference	159	201	does not reduce the therapeutic effect

Reference: patent US20020028237A1, “Method for reducing toxicity of a cytotoxic agent” (priority 2000, published 2002)
